This test addresses T1, angiotensin converting enzyme (Oryctolagus cuniculus, UniProt P12822).
T1 sequence (P12822 34-1310): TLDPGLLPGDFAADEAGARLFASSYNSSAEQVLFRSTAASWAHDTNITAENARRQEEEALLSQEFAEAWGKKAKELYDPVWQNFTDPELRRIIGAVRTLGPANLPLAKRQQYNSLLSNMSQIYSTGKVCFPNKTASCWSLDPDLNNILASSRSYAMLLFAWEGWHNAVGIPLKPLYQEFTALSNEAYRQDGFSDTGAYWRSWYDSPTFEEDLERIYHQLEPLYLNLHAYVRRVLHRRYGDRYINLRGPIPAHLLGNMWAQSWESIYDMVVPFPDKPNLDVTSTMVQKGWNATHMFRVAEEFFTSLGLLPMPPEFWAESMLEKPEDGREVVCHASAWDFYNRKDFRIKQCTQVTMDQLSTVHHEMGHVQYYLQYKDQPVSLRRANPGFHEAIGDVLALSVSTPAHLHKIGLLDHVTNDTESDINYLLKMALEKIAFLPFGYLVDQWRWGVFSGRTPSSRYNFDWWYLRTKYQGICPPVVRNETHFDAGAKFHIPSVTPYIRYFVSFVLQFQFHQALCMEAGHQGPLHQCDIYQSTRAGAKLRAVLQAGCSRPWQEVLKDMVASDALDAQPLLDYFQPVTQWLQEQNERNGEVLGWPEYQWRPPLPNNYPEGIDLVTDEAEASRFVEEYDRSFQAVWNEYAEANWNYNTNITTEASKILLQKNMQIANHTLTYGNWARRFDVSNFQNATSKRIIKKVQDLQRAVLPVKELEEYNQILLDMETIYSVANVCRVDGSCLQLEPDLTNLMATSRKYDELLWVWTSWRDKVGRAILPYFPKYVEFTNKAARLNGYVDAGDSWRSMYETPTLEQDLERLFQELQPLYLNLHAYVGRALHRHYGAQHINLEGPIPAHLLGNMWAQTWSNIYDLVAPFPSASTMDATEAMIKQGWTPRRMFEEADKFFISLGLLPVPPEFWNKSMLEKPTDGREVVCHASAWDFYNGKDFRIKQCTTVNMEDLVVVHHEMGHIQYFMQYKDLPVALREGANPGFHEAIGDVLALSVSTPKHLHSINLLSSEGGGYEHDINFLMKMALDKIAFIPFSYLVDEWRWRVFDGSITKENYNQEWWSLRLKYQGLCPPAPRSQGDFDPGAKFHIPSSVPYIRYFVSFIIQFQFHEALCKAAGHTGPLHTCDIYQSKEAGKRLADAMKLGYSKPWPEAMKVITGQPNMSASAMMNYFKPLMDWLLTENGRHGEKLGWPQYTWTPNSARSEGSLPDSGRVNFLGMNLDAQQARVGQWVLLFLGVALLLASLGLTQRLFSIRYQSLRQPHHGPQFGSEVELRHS
Nature of the test: in vitro inhibition of angiotensin converting enzyme (hippuryl-histidyl-leucine cleavage). The note with it: substrate hippuryl-histidylleucine 2 mM, pH 8.3, 24 minutes at 37° C.; esters cleaved by hog liver esterase before test. The test is classed as biochemical. The method, then: The activity of the present compounds in inhibiting angiotensin converting enzyme in vitro can be determined by the following test.
The method used is based on the method of Cushman and Cheung (Biochem. Pharmacol., 20. 1637-1648) incorporating the modifications introduced by Hayakari et al (Anal. Biochem., 84. 361-369). The substrate (hippuryl-histidylleucine, 2 mM) is incubated with angiotensin converting enzyme in the presence or absence of various concentrations of test substance in potassium phosphate buffer (pH 8.3; 100 mM) containing sodium chloride (300 mM) for 24 minutes at 37° C. (total value 500 μl). (if the test substance is an ester, it is appropriate to cleave it by means of hog liver esterase before carrying out the test). The reaction is terminated by the addition of 3 ml of potassium phosphate buffer (pH 8.3; 200 mM) at 0° C. 2,4,6-Trichloro-s-triazine (3%) in 1.5 ml of dioxan is added and the mixture is agitated until the yellow chromophore has developed fully. The samples are then centrifuged to remove any precipitate which has formed. The yellow chromophore formed by the reaction of the 2,4,6-trichloro-s-triazine with free hippuric acid is measured spectrophotometrically at 382 nm. […]

Each structure is given as a SMILES string.

As to `O=C(O)[C@@H]1CCCN2CCC[C@H](CP(=O)(O)O)C(=O)N12` [Compound A, Octahydro9(S)--phosphonomethyl10-oxo-6H--pyridazo[1,2a][1,2]diazepine1(S)-carboxylic acid], 9.6 nM corresponded to half-maximal inhibition (IC50).
